Experimental data published in patent US9695155B2, “Herbicidal substituted pyrimidinyloxy benzene compounds” (E. I. DU PONT DE NEMOURS AND COMPANY, priority 2013, dated 2017).

What was measured:
lambsquarters = experiment: Test E preemergence; assay type: in vivo, Chenopodium album; conditions: scale 0 to 100 (0 no effect, 100 complete control)
Text: (§1) Seeds of plant species selected from corn (Zea mays), soybean (Glycine max), velvetleaf (Abutilon theophrasti), lambsquarters (Chenopodium album), wild poinsettia (Euphorbia heterophylla), palmer pigweed (Amaranthus palmeri), waterhemp (common waterhemp, Amaranthus rudis), surinam grass (Brachiaria decumbens), large (Lg) crabgrass (Digitaria sanguinalis), Brazilian crabgrass (Digitaria horizontalis), fall panicum (Panicum dichotomiflorum), giant foxtail (Setaria faberii), green foxtail (Setaria viridis), goosegrass (Eleusine indica), johnsongrass (Sorghum halepense), ragweed (common ragweed, Ambrosia elatior), barnyardgrass (Echinochloa crus-galli), sandbur (southern sandbur, Cenchrus echinatus), arrowleaf sida (Sida rhombifolia), Italian ryegrass (Lolium multiflorum), dayflower (Virginia (VA) dayflower, Commelina virginica), field bindweed (Convolvulus arvensis), morningglory (Ipomoea coccinea), nightshade (eastern black nightshade, Solanum ptycanthum), kochia (Kochia scoparia), yellow nutsedge (Cyperus esculentus), cocklebur (common cocklebur, Xanthium strumarium), smartweed (ladysthumb smartweed, and hairy beggarticks (Bidens pilosa), were planted into a silt loam soil and treated preemergence with test chemicals formulated in a non-phytotoxic solvent mixture which included a surfactant.
(§2) At the same time, plants from these crop and weed species and also horseweed (Canada horseweed, Conyza canadensis), waterhemp_RES1, (ALS & Triazine resistant common waterhemp, Amaranthus rudis), and waterhemp_RES2, (ALS & HPPD resistant common waterhemp, Amaranthus rudis) were planted in pots containing Redi-Earth® planting medium (Scotts Company, 14111 Scottslawn Road, Marysville, Ohio 43041) comprising spaghnum peat moss, vermiculite, wetting agent and starter nutrients were treated with postemergence applications of test chemicals formulated in the same manner. Plants ranged in height from 2 to 18 cm for postemergence treatments (1- to 4-leaf stage). Treated plants and controls were maintained in a greenhouse for 14 to 21 days, after which time all species were compared to controls and visually evaluated. Plant response ratings, summarized in Table E, are based on a scale of 0 to 100 where 0 is no effect and 100 is complete control. A dash (-) response means no test result.

large (Lg) crabgrass = experiment: Test E preemergence; assay type: in vivo, Digitaria sanguinalis; conditions: scale 0 to 100 (0 no effect, 100 complete control)
Text: as §1, §2

Italian ryegrass = experiment: Test E preemergence; assay type: in vivo, Lolium multiflorum; conditions: scale 0 to 100 (0 no effect, 100 complete control)
Text: as §1, §2

dayflower = experiment: Test E preemergence; assay type: in vivo, Commelina virginica; conditions: scale 0 to 100 (0 no effect, 100 complete control)
Text: as §1, §2

yellow nutsedge = experiment: Test E preemergence; assay type: in vivo, Cyperus esculentus; conditions: scale 0 to 100 (0 no effect, 100 complete control)
Text: as §1, §2

kochia [1] = experiment: Test A preemergence; assay type: in vivo, Kochia scoparia; conditions: for Kochia plant response rating: 500 g ai/ha
Procedure, shortened: (§3)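 Pre- and postemergence greenhouse screen. Soil: loam + sand. Spray carrier: solvent mixture, non-phytotoxic, with surfactant. Post timing at 1–2 leaves, height 2–10 cm. Readout: visual injury on a 0–100 scale roughly 10 days after application, untreated plants as reference.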

ragweed = experiment: Test A preemergence; assay type: in vivo, Ambrosia elatior; conditions: for Ragweed plant response rating: 500 g ai/ha
Procedure, shortened: as §3

kochia [2] = experiment: Test A postemergence; assay type: in vivo, Kochia scoparia
Procedure, shortened: as §3

blackgrass = experiment: Test A postemergence; assay type: in vivo, Alopecurus myosuroides
Procedure, shortened: as §3

[3] = 125 g ai/ha, 0 to 100 scale where 0 is no effect and 100 is complete control
[4] = 0 to 100 scale, 0 no effect, 100 complete control, approx. 10 days
[5] = 500 g ai/ha, 0 to 100 scale where 0 is no effect and 100 is complete control
[6] = 0 to 100 scale where 0 is no effect and 100 is complete control
[7] = 31 g ai/ha, 0 to 100 scale where 0 is no effect and 100 is complete control, visual, approximately 10 days
[8] = 31 g ai/ha, 0 to 100 scale, 0 no effect, 100 complete control
[9] = 125 g ai/ha, 0 to 100 scale, 0 no effect, 100 complete control

Q: `FC(F)c1cccc(Oc2ncc(Cl)cn2)c1-n1cc(Br)cn1` [Compound 194, 2-[2-(4-bromo-1H-pyrazol-1-yl)-3-(difluoromethyl)phenoxy]-5-chloropyrimidine] was tested. Which “Lambsquarters plant response rating” value (lambsquarters; 31 g ai/ha) did it give?
A: The value was 80.

Q: And the “Lambsquarters plant response rating” value (lambsquarters; 62 g ai/ha)?
A: The value was 100.

Q: What about the “Crabgrass, Large plant response rating” value (large (Lg) crabgrass; 31 g ai/ha) of the same compound?
A: The value was 85.

Q: What about the “Crabgrass, Large plant response rating” value (large (Lg) crabgrass; 62 g ai/ha) of the same compound?
A: The value was 95.

Q: And the “Ryegrass, Italian plant response rating” value (Italian ryegrass; 31 g ai/ha)?
A: The value was 0.

Q: And the “Ryegrass, Italian plant response rating” value (Italian ryegrass; 62 g ai/ha)?
A: Its value is 0.

Q: What about the “Dayflower, VA plant response rating” value (dayflower; 31 g ai/ha) of the same compound?
A: Its value is 0.

Q: And the “Dayflower, VA plant response rating” value (dayflower; 62 g ai/ha)?
A: The value was 40.

Q: What about the “Nutsedge, Yellow plant response rating” value (yellow nutsedge; 31 g ai/ha) of the same compound?
A: The value was 0.

Q: What about the “Nutsedge, Yellow plant response rating” value (yellow nutsedge; 62 g ai/ha) of the same compound?
A: The value was 20.

Q: Which results are given for `FCc1cccc(Oc2ncc(Cl)cn2)c1-n1cc(Br)cn1` [Compound 83]?
A: Plant response rating, Kochia (kochia [1]; [3]): 100; Kochia plant response rating (kochia [1]; [4]): 100; Plant response rating, Ragweed (ragweed; [3]): 20; Ragweed plant response rating (ragweed; [4]): 50; Plant response rating, Kochia (kochia [2]; [3]): 100; Plant response rating, Kochia (kochia [2]; [5]): 100; Plant response rating, Blackgrass (blackgrass; [3]): 100; Plant response rating, Blackgrass (blackgrass; 500 g ai/ha, 0 to 100 scale, 0 no effect, 100 complete control): 100

Q: Which “Plant response rating, Kochia” value (kochia [1]; [3]) does the source give for `Clc1cnc(Oc2cccc(Br)c2-n2cc(Br)nn2)nc1` [Compound 129] here?
A: The value was 100.

Q: What about the “Kochia plant response rating” value (kochia [1]; [6]) of the same compound?
A: The value was 100.

Q: What about the “Plant response rating, Ragweed” value (ragweed; [3]) of the same compound?
A: The value was 30.

Q: What about the “Ragweed plant response rating” value (ragweed; [6]) of the same compound?
A: Its value is 80.

Q: And the “Kochia plant response rating” value (kochia [2]; [3])?
A: The value was 100.

Q: And the “Plant response rating, Kochia” value (kochia [2]; [5])?
A: The value was 100.

Q: What about the “Blackgrass plant response rating” value (blackgrass; [3]) of the same compound?
A: Its value is 70.

Q: And the “Plant response rating, Blackgrass” value (blackgrass; [5])?
A: The value was 90.

Q: What does the source list for `COc1cnn(-c2c(C#N)cccc2Oc2ncc(Cl)cn2)c1` [Compound 137]?
A: Plant response rating, Kochia (kochia [1]; [3]): 90; Kochia plant response rating (kochia [1]; [6]): 100; Plant response rating, Ragweed (ragweed; [3]): 30; Ragweed plant response rating (ragweed; [6]): 60; Kochia plant response rating (kochia [2]; [3]): 80; Plant response rating, Kochia (kochia [2]; [5]): 100; Blackgrass plant response rating (blackgrass; [3]): 20; Plant response rating, Blackgrass (blackgrass; [5]): 90

Q: What does the source list for `N#Cc1cccc(Oc2ncc(Cl)cn2)c1-n1cnc(C(F)(F)F)c1` [Compound 252, 3-[(5-chloro-2-pyrimidinyl)oxy]-2-[4-(trifluoromethyl)-1H-imidazol-1-yl]benzonitrile]?
A: Plant response rating, Kochia (kochia [1]; [7]): 80; Kochia plant response rating (0 to 100 scale) (kochia [1]; 125 g ai/ha): 100; Kochia plant response rating (kochia [1]; [6]): 100; Plant response rating, Ragweed (ragweed; [7]): 20; Ragweed plant response rating (0 to 100 scale) (ragweed; 125 g ai/ha): 70; Ragweed plant response rating (ragweed; [6]): 100; Plant response rating, Kochia (kochia [2]; [8]): 70; Plant response rating, Kochia (kochia [2]; [9]): 100; Plant response rating, Kochia (kochia [2]; [5]): 100; Plant response rating, Blackgrass (blackgrass; [8]): 10; Plant response rating, Blackgrass (blackgrass; [9]): 60; Plant response rating, Blackgrass (blackgrass; [5]): 100

Q: Which “Plant response rating, Kochia” value (kochia [1]; [3]) does the source give for `Cc1cnc(Oc2cccc(C#N)c2-n2cc(I)cn2)nc1` [Compound 136] here?
A: The value was 90.

Q: What about the “Kochia plant response rating” value (kochia [1]; [6]) of the same compound?
A: Its value is 100.

Q: What about the “Plant response rating, Ragweed” value (ragweed; [3]) of the same compound?
A: Its value is 80.

Q: And the “Ragweed plant response rating” value (ragweed; [6])?
A: Its value is 100.

Q: And the “Kochia plant response rating” value (kochia [2]; [3])?
A: The value was 70.

Q: And the “Plant response rating, Kochia” value (kochia [2]; [5])?
A: Its value is 100.

Q: And the “Blackgrass plant response rating” value (blackgrass; [3])?
A: Its value is 20.

Q: And the “Plant response rating, Blackgrass” value (blackgrass; [5])?
A: Its value is 100.

Q: How did the “Plant response rating, Kochia” value (kochia [1]; [3]) turn out when `CCCOc1cnn(-c2c(C#N)cccc2Oc2ncc(Cl)cn2)c1` [Compound 150] was run?
A: The value was 100.

Q: And the “Kochia plant response rating” value (kochia [1]; [6])?
A: The value was 100.

Q: What about the “Plant response rating, Ragweed” value (ragweed; [3]) of the same compound?
A: The value was 30.

Q: What about the “Ragweed plant response rating” value (ragweed; [6]) of the same compound?
A: Its value is 70.

Q: And the “Kochia plant response rating” value (kochia [2]; [3])?
A: Its value is 70.

Q: What about the “Plant response rating, Kochia” value (kochia [2]; [5]) of the same compound?
A: The value was 100.

Q: And the “Blackgrass plant response rating” value (blackgrass; [3])?
A: Its value is 100.

Q: And the “Plant response rating, Blackgrass” value (blackgrass; [5])?
A: Its value is 100.

Q: How did the “Plant response rating, Kochia” value (kochia [1]; [7]) turn out when `Fc1cccc(Oc2ncc(Cl)cn2)c1-n1cc(OCC(F)(F)F)cn1` [Compound 270] was run?
A: The value was 80.

Q: And the “Kochia plant response rating (0 to 100 scale)” value (kochia [1]; 125 g ai/ha)?
A: Its value is 100.

Q: And the “Plant response rating, Ragweed” value (ragweed; [7])?
A: The value was 0.

Q: And the “Ragweed plant response rating (0 to 100 scale)” value (ragweed; 125 g ai/ha)?
A: Its value is 20.

Q: What about the “Plant response rating, Kochia” value (kochia [2]; [8]) of the same compound?
A: Its value is 60.

Q: What about the “Plant response rating, Kochia” value (kochia [2]; [9]) of the same compound?
A: Its value is 70.

Q: What about the “Plant response rating, Blackgrass” value (blackgrass; [8]) of the same compound?
A: The value was 10.

Q: What about the “Plant response rating, Blackgrass” value (blackgrass; [9]) of the same compound?
A: The value was 40.
